Test results as given in the supplement of paper PMC4862054.

Assays:
Conditions in all cases: incubation time: 72 h
HDQ-P1 = test: normalised viability (% of control), CellTiter-Blue; higher = more viable cells (about 100 = DMSO control)
How it was run: (§1)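 384-well plates were pre-loaded with compound in 5 µl medium before 20 µl of breast cancer cell suspension was seeded. Following 72 h incubation, 2.5 µl CellTiter-Blue reagent was added for 2 h at 37 °C. Fluorescence was read at 560/590 nm and plates were normalised to vehicle (100) and a positive kill control (0), checked by Z'-factor. Normalised viability is reported at a single listed concentration of the series.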

DU-4475 [1] = test: as above
How it was run: as §1

SK-BR-3 = test: as above
How it was run: as §1

CAL-120 [2] = test: as above
How it was run: as §1

MDA-MB-231 [3] = test: as above
How it was run: as §1

MDA-MB-468 [4] = test: as above
How it was run: as §1

CAL-85-1 [5] = test: as above
How it was run: as §1

CAL-148 [6] = test: as above
How it was run: as §1

MDA-MB-453 [7] = test: as above
How it was run: as §1

DU-4475 [8] = test: normalised response (% of control), CellTox Green; higher = less cell death (100 = DMSO, 0 = benzethonium chloride kill control)
How it was run: (§2)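 Breast cancer cell lines (20 µl suspension) were seeded into 384-well plates holding compound at 5 concentrations in 10-fold steps over a compound-specific 10,000-fold range, then incubated 72 h. CellTox Green fluorescence (485/520 nm) was read first, then CellTiter-Glo luminescence after 10 min at room temperature. Each plate was normalised to 0.1 % DMSO (100) and a positive kill control (0). Each value is the normalised signal at a single concentration of the series.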

Hs578T = test: as above
How it was run: as §2

MFM-223 = test: as above
How it was run: as §2

HCC1143 = test: as above
How it was run: as §2

CAL-120 [9] = test: as above
How it was run: as §2

MDA-MB-231 [10] = test: as above
How it was run: as §2

HCC1599 = test: as above
How it was run: as §2

MCF-10A = test: as above
How it was run: as §2

MDA-MB-468 [11] = test: as above
How it was run: as §2

CAL-85-1 [12] = test: as above
How it was run: as §2

BT-549 = test: as above
How it was run: as §2

MDA-MB-436 = test: as above
How it was run: as §2

CAL-148 [13] = test: as above
How it was run: as §2

BT-474 = test: as above
How it was run: as §2

MDA-MB-453 [14] = test: as above
How it was run: as §2

CAL-51 = test: as above
How it was run: as §2

Structure (SMILES)	normalised viability (HDQ-P1; 3 nM) [%]	normalised viability (HDQ-P1; 30 nM) [%]	normalised viability (HDQ-P1; 100 nM) [%]	normalised viability (DU-4475 [1]; 3 nM) [%]	normalised viability (DU-4475 [1]; 30 nM) [%]	normalised viability (DU-4475 [1]; 100 nM) [%]	normalised viability (SK-BR-3; 10 nM) [%]	normalised viability (SK-BR-3; 1000 nM) [%]	normalised viability (SK-BR-3; 10000 nM) [%]	normalised viability (CAL-120 [2]; 10 nM) [%]	normalised viability (CAL-120 [2]; 1000 nM) [%]	normalised viability (CAL-120 [2]; 10000 nM) [%]	normalised viability (MDA-MB-231 [3]; 10 nM) [%]	normalised viability (MDA-MB-231 [3]; 1000 nM) [%]	normalised viability (MDA-MB-231 [3]; 10000 nM) [%]	normalised viability (MDA-MB-468 [4]; 10 nM) [%]	normalised viability (MDA-MB-468 [4]; 1000 nM) [%]	normalised viability (CAL-85-1 [5]; 3 nM) [%]	normalised viability (CAL-148 [6]; 3 nM) [%]	normalised viability (MDA-MB-453 [7]; 3 nM) [%]	further results
CN1CCN(c2ccc3nc(-c4c(N)c5c(F)cccc5[nH]c4=O)[nH]c3c2)CC1 [Dovitinib]	91	93.3	88.3	94.3	85.5	89.4	84.8	94.8	72.9	88.3	91.8	83.7	96.1	75.2	86.4	104	90.6	85.3	91.6	114	normalised viability (MDA-MB-468 [4]; 10000 nM): 72.6%; normalised viability (CAL-85-1 [5]; 30 nM): 86.4%; normalised viability (CAL-85-1 [5]; 100 nM): 97.5%; normalised viability (CAL-148 [6]; 30 nM): 95.5%; normalised viability (CAL-148 [6]; 100 nM): 89.6%; normalised viability (MDA-MB-453 [7]; 30 nM): 82.3%; normalised viability (MDA-MB-453 [7]; 100 nM): 84%
O=c1[nH]cc(F)c(=O)[nH]1 [Fluorouracil]	105	114	99.9	120	103	85.6	108	62.4	43.1	114	95.8	54.9	104	97.5	64.7	99.4	103	105	111	113	normalised viability (MDA-MB-468 [4]; 10000 nM): 76%; normalised viability (CAL-85-1 [5]; 30 nM): 101%; normalised viability (CAL-85-1 [5]; 100 nM): 115%; normalised viability (CAL-148 [6]; 30 nM): 109%; normalised viability (CAL-148 [6]; 100 nM): 103%; normalised viability (MDA-MB-453 [7]; 30 nM): 106%; normalised viability (MDA-MB-453 [7]; 100 nM): 99.1%
COC1=CC(c2cc3ccccc3[nH]2)=N/C1=C\c1[nH]c(C)cc1C [Obatoclax]	85.3	94.9	68.8	86.3	73.7	88.2	80.2	27.1	21.2	75.5	9.72	8.54	77	11.4	3.22	85	29.5	81.2	84.7	101	normalised viability (MDA-MB-468 [4]; 10000 nM): 31.7%; normalised viability (CAL-85-1 [5]; 30 nM): 77.7%; normalised viability (CAL-85-1 [5]; 100 nM): 79.5%; normalised viability (CAL-148 [6]; 30 nM): 87.9%; normalised viability (CAL-148 [6]; 100 nM): 87.2%; normalised viability (MDA-MB-453 [7]; 30 nM): 77.9%; normalised viability (MDA-MB-453 [7]; 100 nM): 74.3%
O=C(c1ccc(OCCN2CCCCC2)cc1)c1c(-c2ccc(O)cc2)sc2cc(O)ccc12 [Raloxifene]	90.2	97.5	107	105	108	104	94	94.7	103	99.6	98.2	91.8	85.3	89.3	102	98.6	106	100	95.2	106	normalised viability (MDA-MB-468 [4]; 10000 nM): 78.2%; normalised viability (CAL-85-1 [5]; 30 nM): 94.5%; normalised viability (CAL-85-1 [5]; 100 nM): 98%; normalised viability (CAL-148 [6]; 30 nM): 98.6%; normalised viability (CAL-148 [6]; 100 nM): 93.8%; normalised viability (MDA-MB-453 [7]; 30 nM): 97.5%; normalised viability (MDA-MB-453 [7]; 100 nM): 92.4%
O=P(O)(NCCCl)NCCCl [Ifosfamide mustard]	107	117	107	92.4	99.6	95.7	101	107	111	80.5	85.6	89.5	108	124	86.6	98.5	93.9	96	96.8	115	normalised viability (MDA-MB-468 [4]; 10000 nM): 86.9%; normalised viability (CAL-85-1 [5]; 30 nM): 90.9%; normalised viability (CAL-85-1 [5]; 100 nM): 99.1%; normalised viability (CAL-148 [6]; 30 nM): 103%; normalised viability (CAL-148 [6]; 100 nM): 102%; normalised viability (MDA-MB-453 [7]; 30 nM): 95.5%; normalised viability (MDA-MB-453 [7]; 100 nM): 107%
COc1cccc2c1C(=O)c1c(O)c3c(c(O)c1C2=O)C[C@@](O)(C(C)=O)C[C@@H]3O[C@H]1C[C@H](N)[C@H](O)[C@H](C)O1 [Daunorubicin] (100 nM)	–	–	–	–	–	–	–	–	–	–	–	–	–	–	–	–	–	–	–	–	normalised response (DU-4475 [8]): 100%; normalised response (Hs578T): 90.7%; normalised response (MFM-223): 99.6%; normalised response (HCC1143): 75.9%; normalised response (CAL-120 [9]): 105%; normalised response (MDA-MB-231 [10]): 104%; normalised response (HCC1599): 102%; normalised response (MCF-10A): 106%; normalised response (MDA-MB-468 [11]): 96.9%; normalised response (CAL-85-1 [12]): 102%; normalised response (BT-549): 124%; normalised response (MDA-MB-436): 98.2%; normalised response (CAL-148 [13]): -17.1%; normalised response (BT-474): 99.5%; normalised response (MDA-MB-453 [14]): 110%; normalised response (CAL-51): 73.5%
Cn1cnc2c(F)c(Nc3ccc(Br)cc3F)c(C(=O)NOCCO)cc21 [MEK-162]	105	–	–	94	–	–	–	102	–	–	93.4	–	–	47	–	–	75.2	95.1	91	94	normalised viability (HDQ-P1; 0.3 nM): 110%; normalised viability (HDQ-P1; 10 nM): 113%; normalised viability (DU-4475 [1]; 0.3 nM): 100%; normalised viability (DU-4475 [1]; 10 nM): 78.1%; normalised viability (SK-BR-3; 1 nM): 111%; normalised viability (SK-BR-3; 100 nM): 111%; normalised viability (CAL-120 [2]; 1 nM): 98.1%; normalised viability (CAL-120 [2]; 100 nM): 93.8%; normalised viability (MDA-MB-231 [3]; 1 nM): 104%; normalised viability (MDA-MB-231 [3]; 100 nM): 80.3%; normalised viability (MDA-MB-468 [4]; 1 nM): 107%; normalised viability (MDA-MB-468 [4]; 100 nM): 99.5%; normalised viability (CAL-85-1 [5]; 0.3 nM): 94.6%; normalised viability (CAL-85-1 [5]; 10 nM): 99.1%; normalised viability (CAL-148 [6]; 0.3 nM): 94%; normalised viability (CAL-148 [6]; 10 nM): 97.2%; normalised viability (MDA-MB-453 [7]; 0.3 nM): 115%; normalised viability (MDA-MB-453 [7]; 10 nM): 110%
